Data published in ChEMBL document CHEMBL1777781, “Synthesis and antidyslipidemic activity of chalcone fibrates” (2011).

Assays:
Syrian golden hamster [1] = experiment: Antidyslipidemic activity against high fructose high fat diet fed syrian golden hamster assessed as reduction in serum cholesterol at 30 mg/kg, po for 7 days relative to untreated control; assay type: functional, Mesocricetus auratus; design: scale not given: the % may be the effect or the level left
Syrian golden hamster [2] = experiment: Antidyslipidemic activity against high fructose high fat diet fed syrian golden hamster assessed as reduction in serum triglyceride at 30 mg/kg, po for 7 days relative to untreated control; assay type: functional, Mesocricetus auratus; design: scale not given: the % may be the effect or the level left
Syrian golden hamster [3] = experiment: Antidyslipidemic activity against high fructose high fat diet fed syrian golden hamster assessed as change in serum HDL-cholesterol at 30 mg/kg, po for 7 days relative to untreated control; assay type: functional, Mesocricetus auratus
Syrian golden hamster [4] = experiment: Antidyslipidemic activity against high fructose high fat diet fed syrian golden hamster assessed as reduction in serum LDL-cholesterol at 30 mg/kg, po for 7 days relative to untreated control; assay type: functional, Mesocricetus auratus; design: scale not given: the % may be the effect or the level left
Syrian golden hamster [5] = experiment: Antidyslipidemic activity against high fructose high fat diet fed syrian golden hamster assessed as reduction in glycerol level at 30 mg/kg, po for 7 days relative to untreated control; assay type: functional, Mesocricetus auratus; design: scale not given: the % may be the effect or the level left
Syrian golden hamster [6] = experiment: Antidyslipidemic activity against high fructose high fat diet fed syrian golden hamster assessed as reduction in NEFA level at 30 mg/kg, po for 7 days relative to untreated control; assay type: functional, Mesocricetus auratus; design: scale not given: the % may be the effect or the level left
Syrian golden hamster [7] = experiment: Antidyslipidemic activity against high fructose high fat diet fed syrian golden hamster assessed as increase in lipoprotein lipase activity at 30 mg/kg, po for 7 days relative to untreated control; assay type: functional, Mesocricetus auratus
Syrian golden hamster [8] = experiment: Antidyslipidemic activity against high fructose high fat diet fed syrian golden hamster assessed as reduction in serum cholesterol at 10 mg/kg, po for 7 days relative to untreated control; assay type: functional, Mesocricetus auratus; design: scale not given: the % may be the effect or the level left
Syrian golden hamster [9] = experiment: Antidyslipidemic activity against high fructose high fat diet fed syrian golden hamster assessed as reduction in serum triglyceride at 10 mg/kg, po for 7 days relative to untreated control; assay type: functional, Mesocricetus auratus; design: scale not given: the % may be the effect or the level left
Syrian golden hamster [10] = experiment: Antidyslipidemic activity against high fructose high fat diet fed syrian golden hamster assessed as change in serum HDL-cholesterol at 10 mg/kg, po for 7 days relative to untreated control; assay type: functional, Mesocricetus auratus
Syrian golden hamster [11] = experiment: Antidyslipidemic activity against high fructose high fat diet fed syrian golden hamster assessed as reduction in serum LDL-cholesterol at 10 mg/kg, po for 7 days relative to untreated control; assay type: functional, Mesocricetus auratus; design: scale not given: the % may be the effect or the level left
Syrian golden hamster [12] = experiment: Antidyslipidemic activity against high fructose high fat diet fed syrian golden hamster assessed as reduction in glycerol level at 10 mg/kg, po for 7 days relative to untreated control; assay type: functional, Mesocricetus auratus; design: scale not given: the % may be the effect or the level left
Syrian golden hamster [13] = experiment: Antidyslipidemic activity against high fructose high fat diet fed syrian golden hamster assessed as reduction in NEFA level at 10 mg/kg, po for 7 days relative to untreated control; assay type: functional, Mesocricetus auratus; design: scale not given: the % may be the effect or the level left
Syrian golden hamster [14] = experiment: Antidyslipidemic activity against high fructose high fat diet fed syrian golden hamster assessed as increase in lipoprotein lipase activity at 10 mg/kg, po for 7 days relative to untreated control; assay type: functional, Mesocricetus auratus
Syrian golden hamster [15] = experiment: Antidyslipidemic activity against high fructose high fat diet fed po dosed syrian golden hamster assessed as reduction in serum cholesterol administered for 7 days relative to untreated control; assay type: functional, organism-based; conditions: Mesocricetus auratus
Syrian golden hamster [16] = experiment: Antidyslipidemic activity against high fructose high fat diet fed po dosed syrian golden hamster assessed as reduction in serum triglyceride administered for 7 days relative to untreated control; assay type: functional, organism-based; conditions: Mesocricetus auratus
Syrian golden hamster [17] = experiment: Antidyslipidemic activity against high fructose high fat diet fed po dosed syrian golden hamster assessed as increase in serum HDL-cholesterol administered for 7 days relative to untreated control; assay type: functional, organism-based; conditions: Mesocricetus auratus
Syrian golden hamster [18] = experiment: Antidyslipidemic activity against high fructose high fat diet fed po dosed syrian golden hamster assessed as reduction in serum LDL-cholesterol administered for 7 days relative to untreated control; assay type: functional, organism-based; conditions: Mesocricetus auratus
Syrian golden hamster [19] = experiment: Antidyslipidemic activity against high fructose high fat diet fed po dosed syrian golden hamster assessed as reduction in glycerol level administered for 7 days relative to untreated control; assay type: functional, organism-based; conditions: Mesocricetus auratus
Syrian golden hamster [20] = experiment: Antidyslipidemic activity against high fructose high fat diet fed po dosed syrian golden hamster assessed as reduction in NEFA level administered for 7 days relative to untreated control; assay type: functional, organism-based; conditions: Mesocricetus auratus
Syrian golden hamster [21] = experiment: Antidyslipidemic activity against high fructose high fat diet fed po dosed syrian golden hamster assessed as increase in lipoprotein lipase activity administered for 7 days relative to untreated control; assay type: functional, organism-based; conditions: Mesocricetus auratus
Syrian golden hamster [22] = experiment: Antidiabetic activity against high fructose high fat diet fed syrian golden hamster assessed as change in fasting blood glucose level at 30 mg/kg, po for 7 days relative to untreated control; assay type: functional, Mesocricetus auratus
Syrian golden hamster [23] = experiment: Antidiabetic activity against high fructose high fat diet fed syrian golden hamster assessed as change in serum insulin level at 30 mg/kg, po for 7 days by ELISA relative to untreated control; assay type: functional, Mesocricetus auratus
Syrian golden hamster [24] = experiment: Antidyslipidemic activity against high fructose high fat diet fed syrian golden hamster assessed as reduction in body weight at 30 mg/kg, po for 7 days relative to untreated control; assay type: functional, Mesocricetus auratus; design: scale not given: the % may be the effect or the level left

Compound | Activity (Syrian golden hamster [1]) [%] | Activity (Syrian golden hamster [2]) [%] | Activity (Syrian golden hamster [3]) [%] | Activity (Syrian golden hamster [4]) [%] | Activity (Syrian golden hamster [5]) [%] | Activity (Syrian golden hamster [6]) [%] | Activity (Syrian golden hamster [7]) [%] | Activity (Syrian golden hamster [8]) [%] | Activity (Syrian golden hamster [9]) [%] | Activity (Syrian golden hamster [10]) [%] | Activity (Syrian golden hamster [11]) [%] | Activity (Syrian golden hamster [12]) [%] | Activity (Syrian golden hamster [13]) [%] | Activity (Syrian golden hamster [14]) [%] | Activity (Syrian golden hamster [15]) | Activity (Syrian golden hamster [16]) | Activity (Syrian golden hamster [17]) | Activity (Syrian golden hamster [18]) | Activity (Syrian golden hamster [22]) [%] | Activity (Syrian golden hamster [23]) [%] | other results
CCOC(=O)C(C)(C)Oc1ccc(C(=O)/C=C/c2ccc([N+](=O)[O-])cc2)cc1 | 25 | 30.4 | 5.88 | 28.5 | 17.2 | 15.9 | 21.7 | 15.6 | 20 | -3.36 | 16.9 | 7.93 | 2.45 | 10.8 | Dose-dependent effect | Dose-dependent effect | Dose-dependent effect | Dose-dependent effect | -7.49 | -24.3 | Activity (Syrian golden hamster [19]): Dose-dependent effect; Activity (Syrian golden hamster [20]): Dose-dependent effect; Activity (Syrian golden hamster [21]): Dose-dependent effect; Activity (Syrian golden hamster [24]): 6.85%
CCOC(=O)C(C)(C)Oc1ccc(C(=O)/C=C/c2ccc(Cl)cc2)cc1 | 23.7 | 22.7 | -2.52 | 20.5 |  |  |  |  |  |  |  |  |  |  |  |  |  |  | 5.4 | -22.2 | 
CC(C)OC(=O)C(C)(C)Oc1ccc(C(=O)c2ccc(Cl)cc2)cc1 [FENOFIBRATE] |  | 28.9 | 9.8 | 30.1 | 22.4 |  | 21.1 |  |  |  |  |  |  |  |  |  |  |  | -5.4 | -11.5 | 
CCOC(=O)C(C)(C)Oc1ccc(C(=O)/C=C/c2ccccc2Cl)cc1 | 0.48 | 21.3 | 15.6 | 16.4 |  |  |  |  |  |  |  |  |  |  |  |  |  |  | 4.65 | 2.39 | 
CCOC(=O)C(C)(C)Oc1ccc(C(=O)/C=C/c2ccc3c(c2)OCO3)cc1 | 26.8 | 41.6 | 9.8 | 41.7 | 24.9 | 20.5 | 30.2 | 18.6 | 20 | 3.78 | 25.2 | 14.9 | 6.73 | 14.5 | Dose-dependent effect | Dose-dependent effect | Dose-dependent effect | Dose-dependent effect | -14.8 | -22.2 | Activity (Syrian golden hamster [19]): Dose-dependent effect; Activity (Syrian golden hamster [20]): Dose-dependent effect; Activity (Syrian golden hamster [21]): Dose-dependent effect; Activity (Syrian golden hamster [24]): 6.25%
